≈ marks a conversion by molar mass, not a printed value.
Experiments:
[1] = comparative tests on intrinsic dissolution; type: physicochemical; details: Acetonitrile/H2O (60/40), 500 ml, 37° C., 75 revolutions/minute, pellets 0.5 cm^2, UV at 246 nm
Protocol: A. Tests for evaluating the rate of intrinsic dissolution are carried out with the amorphous rimonabant obtained in Example 9 and the rimonabant in its crystalline form.
These tests are carried out under the following conditions: • Solution: Acetonitrile/H2O (60/40) • Volume: 500 ml • Temperature: 37° C. • Rotation speed: 75 revolutions/minute • Surface area of the pellets: 0.5 cm^2 • Compressive force on the pellets: 2 tonnes, 20 seconds • Assay method: UV at 246 nm • Equipment: Vankel “VK700”-Kontron “Uvikon 941+”
B. Tests are carried out with the amorphous surinabant obtained in Example 10 and the surinabant in its crystalline form. The test conditions are identical to those of the comparative tests carried out for rimonabant (see preceding section A).

[2] = stability under stressing conditions (100° C., X-ray powder diffractometry); type: physicochemical; details: same stressing conditions
Protocol: The apparatus used is a Bragg-Brentano-type DT 500 diffractometer from Siemens®. The line used is Kα1 of copper obtained at an accelerating voltage of 30 mA-40 kV. The diffractograms are recorded for angles of between 2° and 40° at the rate of 1°.min^−1 in Bragg 2-theta.
The physicochemical stability of the solid solution of powder obtained is determined at 100° C. without a controlled atmosphere, for 52 days. Several samples are placed in an oven adjusted to the temperature of 100° C. and analyzed at various times by X-ray powder diffractometry.
The physicochemical stability of the solid solution of Example 2 is determined at 100° C. without a controlled atmosphere, for 28 days. Several samples are placed in an oven adjusted to the temperature of 100° C., and are analyzed at various times by powder X-ray diffractometry.

[3] = membrane permeability on the Caco-2 cell model; type: in vitro ADME; details: human; Caco-2 cell model (Gres et al.); read-out: membrane permeability coefficient
Protocol: (§1) These compounds are molecules which are relatively water-insoluble; their water-solubilities are respectively 0.1 μg/ml and 1 μg/l at pH=6.5. Furthermore, these compounds have high membrane permeability coefficients: respectively 78×10^−7 cm/s and 96×10^−7 cm/s on the Caco-2 cell model, as described by M. G. Gres et al., in Pharmaceutical Research, 1998, 15(5), 726-733.

[4] = water-solubility at pH 6.5; type: physicochemical
Protocol: as §1

SMILES | rate of intrinsic dissolution [1] [mg.min^−1.cm^−2] | time in which it becomes completely crystalline [2] [h] | Papp [3] [×10⁻⁶ cm/s] | solubility [4] [µg/mL]
Cc1c(C(=O)NN2CCCCC2)nn(-c2ccc(Cl)cc2Cl)c1-c1ccc(Cl)cc1 [amorphous rimonabant, N-Piperidino-5-(4-chlorophenyl)-1-(2,4-dichlorophenyl)-4-methylpyrazole-3-carboxamide] | 1.3 | – | – | –
CCc1c(C(=O)NN2CCCCC2)nn(-c2ccc(Cl)cc2Cl)c1-c1ccc(Br)cc1 [amorphous surinabant, N-piperidino-5-(4-bromophenyl)-1-(2,4-dichlorophenyl)-4-ethylpyrazole-3-carboxamide] | 0.85 | ≤ 24 | – | –
CCc1c(C(=O)NN2CCCCC2)nn(-c2ccc(Cl)cc2Cl)c1-c1ccc(Br)cc1 [crystalline surinabant, N-piperidino-5-(4-bromophenyl)-1-(2,4-dichlorophenyl)-4-ethylpyrazole-3-carboxamide] | 0.2 | – | – | –
CCc1c(C(=O)NN2CCCCC2)nn(-c2ccc(Cl)cc2Cl)c1-c1ccc(Br)cc1 [surinabant, N-piperidino-5-(4-bromophenyl)-1-(2,4-dichlorophenyl)-4-ethylpyrazole-3-carboxamide] | – | – | 9.6 | 1 (≈ 1.91 µM)

Now from value to compound:

rate of intrinsic dissolution [1] [mg.min^−1.cm^−2] | time in which it becomes completely crystalline [2] [h] | Papp [3] [×10⁻⁶ cm/s] | solubility [4] [µg/mL] | SMILES
0.7 | – | – | – | Cc1c(C(=O)NN2CCCCC2)nn(-c2ccc(Cl)cc2Cl)c1-c1ccc(Cl)cc1 [crystalline rimonabant, N-Piperidino-5-(4-chlorophenyl)-1-(2,4-dichlorophenyl)-4-methylpyrazole-3-carboxamide]
– | – | 7.8 | 0.1 (≈ 0.216 µM) | Cc1c(C(=O)NN2CCCCC2)nn(-c2ccc(Cl)cc2Cl)c1-c1ccc(Cl)cc1 [rimonabant, N-Piperidino-5-(4-chlorophenyl)-1-(2,4-dichlorophenyl)-4-methylpyrazole-3-carboxamide]

Reference: patent US20100076023A1, “AMORPHOUS SOLID COMPOSITION CONTAINING A PYRAZOLE-3-CARBOXAMIDE IN AMORPHOUS FORM AND STABILISING CARRIERS” (SANOFI-AVENTIS, priority 2007, published 2010)
